pEC50, pIC50: −log10 of the molar value.
Columns and labels:
MKN45 = experiment: Inhibition of cell viability (MTS), MKN45; type: cell-based; details: Homo sapiens, 96 hours incubation
Method in brief: (§1)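 Cells seeded at 2,000-7,500/well, attached ~24 h, then treated in duplicate with 1:2.5 serial dilutions at 0.5% final DMSO. Viability by MTS; EC50 from non-linear fit after background correction and normalisation to DMSO. MKN45 and EBC1 are cMET-dependent; A549 serves as negative control.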

EBC1 = experiment: Inhibition of cell viability (MTS), EBC1; type: cell-based; details: Homo sapiens, 96 hours incubation
Method in brief: as §1

[1] = biological target: T1, cMET enzyme (amino acids 1023-1360) (Homo sapiens, UniProt P08581); experiment: Determination of inhibition of cMET (capillary electrophoresis, phosphorylated peptide product); type: biochemical; details: 1.2 nM cMET, 50 μM ATP, 2 μM FL-2 peptide, 2 hours room temperature
T1 construct: The cMET enzyme (amino acids 1023-1360) nominally at 24 μM was held at −80° C. until use; His tag (N, cleaved yes); made in house; host or cells: Sf9 cells
T1 sequence (P08581 1023-1360): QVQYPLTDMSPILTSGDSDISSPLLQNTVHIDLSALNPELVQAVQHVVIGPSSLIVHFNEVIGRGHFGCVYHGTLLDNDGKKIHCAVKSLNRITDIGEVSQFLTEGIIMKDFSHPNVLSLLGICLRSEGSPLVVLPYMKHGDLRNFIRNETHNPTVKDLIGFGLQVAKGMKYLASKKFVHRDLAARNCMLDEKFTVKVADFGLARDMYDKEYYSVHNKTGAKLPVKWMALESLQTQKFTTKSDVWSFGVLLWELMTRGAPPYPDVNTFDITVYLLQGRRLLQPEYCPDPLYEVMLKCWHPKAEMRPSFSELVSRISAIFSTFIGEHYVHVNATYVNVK

A549 = experiment: Inhibition of cell viability (MTS), A549 (negative control line); type: cell-based; details: Homo sapiens, A549 cells (negative control), 96 hours incubation
Method in brief: as §1

SMILES | pEC50 (MKN45; MKN-45, 96 h, MKN45 cells) | pEC50 (EBC1; EBC-1, 96 h, EBC1 cells) | pIC50 [1] | pEC50 (A549; A549, 96 h) | pEC50 (MKN45; MKN-45, MKN45 cells) | pEC50 (EBC1; EBC-1, EBC1 cells) | pEC50 (A549)
N#Cc1ccc(-c2ccc3nnc(C(F)(F)c4ccc5nc(NC(=O)C6CC6)cn5n4)n3c2)cc1 [Compound 83, N-(6-((6-(4-cyanophenyl)-[1,2,4]triazolo[4,3-a]pyridin-3-yl)difluoromethyl)imidazo[1,2-b]pyridazin-2-yl)cyclopropanecarboxamide] | > 7.52 | > 7.52 | > 7.52 | < 4.30 | – | – | –
Cc1csc(-c2ccc3nnc(C(F)(F)c4ccc5nc(NC(=O)C6CC6)cn5n4)n3c2)c1 [Compound 84, N-(6-(difluoro(6-(4-methylthiophen-2-yl)-[1,2,4]triazolo[4,3-a]pyridin-3-yl)methyl)imidazo[1,2-b]pyridazin-2-yl)cyclopropanecarboxamide] | > 7.52 | > 7.52 | > 7.52 | < 4.30 | – | – | –
CS(=O)(=O)c1ccc(-c2ccc3nnc(C(F)(F)c4ccc5nc(NC(=O)C6CC6)cn5n4)n3c2)cc1 [Compound 85, N-(6-(difluoro(6-(4-(methylsulfonyl)phenyl)-[1,2,4]triazolo[4,3-a]pyridin-3-yl)methyl)imidazo[1,2-b]pyridazin-2-yl)cyclopropanecarboxamide] | > 7.52 | > 7.52 | > 7.52 | < 4.30 | – | – | –
COc1ccc(-c2ccc3nnc(C(F)(F)c4ccc5nc(NC(=O)C6CC6)cn5n4)n3c2)cn1 [Compound 86, N-(6-(difluoro(6-(6-methoxypyridin-3-yl)-[1,2,4]triazolo[4,3-a]pyridin-3-yl)methyl)imidazo[1,2-b]pyridazin-2-yl)cyclopropanecarboxamide] | > 7.52 | > 7.52 | 7.23 to 7.52 | < 4.30 | – | – | –
O=C(Nc1cn2nc(C(F)(F)c3nnc4ccc(-c5cncnc5)cn34)ccc2n1)C1CC1 [Compound 87, N-(6-(difluoro(6-(pyrimidin-5-yl)-[1,2,4]triazolo[4,3-a]pyridin-3-yl)methyl)imidazo[1,2-b]pyridazin-2-yl)cyclopropanecarboxamide] | 7.23 to 7.52 | 7.23 to 7.52 | 6.60 to 7.00 | < 4.30 | – | – | –
CS(=O)(=O)c1cccc(-c2ccc3nnc(C(F)(F)c4ccc5nc(NC(=O)C6CC6)cn5n4)n3c2)c1 [Compound 88, N-(6-(difluoro(6-(3-(methylsulfonyl)phenyl)-[1,2,4]triazolo[4,3-a]pyridin-3-yl)methyl)imidazo[1,2-b]pyridazin-2-yl)cyclopropanecarboxamide] | > 7.52 | > 7.52 | > 7.52 | < 4.30 | – | – | –
NC(=O)c1cccc(-c2ccc3nnc(C(F)(F)c4ccc5nc(NC(=O)C6CC6)cn5n4)n3c2)c1 [Compound 90, 3-(3-((2-(cyclopropanecarboxamido)imidazo[1,2-b]pyridazin-6-yl)difluoromethyl)-[1,2,4]triazolo[4,3-a]pyridin-6-yl)benzamide] | > 7.52 | > 7.52 | > 7.52 | < 4.30 | – | – | –
COCCOc1ccc(-c2ccc3nnc(C(F)(F)c4ccc5nc(NC(=O)C6CC6)cn5n4)n3c2)cc1 [Compound 91, N-(6-(difluoro(6-(4-(2-methoxyethoxy)phenyl)-[1,2,4]triazolo[4,3-a]pyridin-3-yl)methyl)imidazo[1,2-b]pyridazin-2-yl)cyclopropanecarboxamide] | > 7.52 | > 7.52 | > 7.52 | < 4.30 | – | – | –
O=C(Nc1cn2nc(C(F)(F)c3nnc4ccc(-c5cn[nH]c5)cn34)ccc2n1)C1CC1 [Compound 92, N-(6-((6-(1H-pyrazol-4-yl)-[1,2,4]triazolo[4,3-a]pyridin-3-yl)difluoromethyl)imidazo[1,2-b]pyridazin-2-yl)cyclopropanecarboxamide] | > 7.52 | > 7.52 | > 7.52 | < 4.30 | – | – | –
CC(C)Oc1cccc(-c2ccc3nnc(C(F)(F)c4ccc5nc(NC(=O)C6CC6)cn5n4)n3c2)c1 [Compound 93, N-(6-(difluoro(6-(3-isopropoxyphenyl)-[1,2,4]triazolo[4,3-a]pyridin-3-yl)methyl)imidazo[1,2-b]pyridazin-2-yl)cyclopropanecarboxamide] | 7.23 to 7.52 | 7.23 to 7.52 | 7.00 to 7.22 | 4.60 to 5.10 | – | – | –
CN(C)c1cccc(-c2ccc3nnc(C(F)(F)c4ccc5nc(NC(=O)C6CC6)cn5n4)n3c2)c1 [Compound 96, N-(6-((6-(3-(dimethylamino)phenyl)-[1,2,4]triazolo[4,3-a]pyridin-3-yl)difluoromethyl)imidazo[1,2-b]pyridazin-2-yl)cyclopropanecarboxamide] | > 7.52 | > 7.52 | > 7.52 | 4.60 to 5.10 | – | – | –
Cc1cc(F)cc(-c2ccc3nnc(C(F)(F)c4ccc5nc(NC(=O)C6CC6)cn5n4)n3c2)c1 [Compound 97, N-(6-(difluoro(6-(3-fluoro-5-methylphenyl)-[1,2,4]triazolo[4,3-a]pyridin-3-yl)methyl)imidazo[1,2-b]pyridazin-2-yl)cyclopropanecarboxamide] | > 7.52 | > 7.52 | > 7.52 | < 4.30 | – | – | –
CNC(=O)c1ccc(-c2ccc3nnc(C(F)(F)c4ccc5nc(NC(=O)C6CC6)cn5n4)n3c2)cc1F [Compound 98, 4-(3-((2-(cyclopropanecarboxamido)imidazo[1,2-b]pyridazin-6-yl)difluoromethyl)-[1,2,4]triazolo[4,3-a]pyridin-6-yl)-2-fluoro-N-methylbenzamide] | > 7.52 | > 7.52 | > 7.52 | < 4.30 | – | – | –
Cn1cc(-c2ccc3nnc(C(F)(F)c4ccc5nc(N)cn5n4)n3c2)cn1 [Compound 99, 6-(difluoro(6-(1-methyl-1H-pyrazol-4-yl)-[1,2,4]triazolo[4,3-a]pyridin-3-yl)methyl)imidazo[1,2-b]pyridazin-2-amine] | 6.60 to 7.00 | 6.60 to 7.00 | 6.20 to 6.60 | < 4.30 | – | – | –
COc1cccc(-c2ccc3nnc(Sc4ccc5nc(NC(=O)C6CC6)cn5n4)n3c2)n1 [Compound 101, N-(6-(6-(6-methoxypyridin-2-yl)-[1,2,4]triazolo[4,3-a]pyridin-3-ylthio)imidazo[1,2-b]pyridazin-2-yl)cyclopropanecarboxamide] | 6.60 to 7.00 | 7.23 to 7.52 | > 7.52 | < 4.30 | – | – | –
COc1ccc(-c2ccc3nnc(Sc4ccc5nc(NC(=O)C6CC6)cn5n4)n3c2)cn1 [Compound 102, N-(6-(6-(6-methoxypyridin-3-yl)-[1,2,4]triazolo[4,3-a]pyridin-3-ylthio)imidazo[1,2-b]pyridazin-2-yl)cyclopropanecarboxamide] | 7.00 to 7.22 | 7.23 to 7.52 | 7.23 to 7.52 | < 4.30 | – | – | –
O=C(Nc1cn2nc(Sc3nnc4ccc(-c5ccc(N6CCOCC6)nc5)cn34)ccc2n1)C1CC1 [Compound 103, N-(6-(6-(6-morpholinopyridin-3-yl)-[1,2,4]triazolo[4,3-a]pyridin-3-ylthio)imidazo[1,2-b]pyridazin-2-yl)cyclopropanecarboxamide] | 7.23 to 7.52 | > 7.52 | > 7.52 | < 4.30 | – | – | –
N#Cc1cccc(-c2ccc3nnc(Sc4ccc5nc(NC(=O)C6CC6)cn5n4)n3c2)c1 [Compound 104, N-(6-(6-(3-cyanophenyl)-[1,2,4]triazolo[4,3-a]pyridin-3-ylthio)imidazo[1,2-b]pyridazin-2-yl)cyclopropanecarboxamide] | > 7.52 | > 7.52 | > 7.52 | < 4.30 | – | – | –
N#Cc1cc(-c2ccc3nnc(Sc4ccc5nc(NC(=O)C6CC6)cn5n4)n3c2)ccc1OCCO [Compound 107, N-(6-(6-(3-cyano-4-(2-hydroxyethoxy)phenyl)-[1,2,4]triazolo[4,3-a]pyridin-3-ylthio)imidazo[1,2-b]pyridazin-2-yl)cyclopropanecarboxamide] | – | – | > 7.52 | – | 6.60 to 7.00 | 7.00 to 7.22 | < 4.30
N#Cc1cc(-c2ccc3nnc(Sc4ccc5nc(NC(=O)C6CC6)cn5n4)n3c2)cnc1O [Compound 108, N-(6-(6-(5-cyano-6-hydroxypyridin-3-yl)-[1,2,4]triazolo[4,3-a]pyridin-3-ylthio)imidazo[1,2-b]pyridazin-2-yl)cyclopropanecarboxamide] | 4.60 to 5.10 | 4.60 to 5.10 | 7.23 to 7.52 | < 4.30 | – | – | –
O=C(Nc1cn2nc(Sc3nnc4ccc(-c5cnc(NCCCO)nc5)cn34)ccc2n1)C1CC1 [Compound 109, N-(6-(6-(2-(3-hydroxypropylamino)pyrimidin-5-yl)-[1,2,4]triazolo[4,3-a]pyridin-3-ylthio)imidazo[1,2-b]pyridazin-2-yl)cyclopropanecarboxamide] | 4.60 to 5.10 | 4.60 to 5.10 | 6.20 to 6.60 | 4.60 to 5.10 | – | – | –
O=C(Nc1cn2nc(Sc3nnc4ccc(-c5csc(N6CCOCC6)n5)cn34)ccc2n1)C1CC1 [Compound 110, N-(6-(6-(2-morpholinothiazol-4-yl)-[1,2,4]triazolo[4,3-a]pyridin-3-ylthio)imidazo[1,2-b]pyridazin-2-yl)cyclopropanecarboxamide] | 6.60 to 7.00 | 7.23 to 7.52 | 7.23 to 7.52 | < 4.30 | – | – | –

Source: patent US8178534B2, “cMET inhibitors” (Takeda Pharmaceutical Company Limited, priority 2008, dated 2012)
